The text below walks through data of US20250228858A1, “ANTI-CANCER COMBINATION THERAPY” (Boehringer Ingelheim International GmbH, priority 2023, published 2025).

“And” between values parts separate entries of the source, which are not always exact repeats. Equal values may be shown once.

Series [1] has as its system HER2-overexpressing human breast cancer cell line BT-474. The series can be described thus: BT-474 orthotopic xenograft, zongertinib with T-DM1. The following applies: for stable disease / Regressions >30% / TGI: day 42; for stable disease: number of tumors; for stable disease / mice that lost some weight and had to be euthanized: zongertinib 10 mg/kg qdx42, T-DM1 6 mg/kg q21dx2, monotherapies; for Regressions >30%: tumors regressed/total (partial response); for Regressions >30% / TGI: zongertinib 10 mg/kg qdx42 p.o., T-DM1 6 mg/kg q21dx2 i.v., alone or combined. Type of series: in vivo, NMRI-Foxn1^nu mice. As for the experimental part:
The study is performed in human breast cancer cell line BT-474 grown as orthotopic xenografts in NMRI-Foxn1^nu mice. Day 1 was the first day, day 42 the last day of treatment and final day of analysis.
BT-474 is obtained and cultured as described in Example 10 (see paragraph 10.1.2).
Tumors are established and randomized as described in Example 10 (see paragraph 10.14), except that mice are randomly distributed between the treatment and the vehicle control group (22 days after cell injection) when tumors are well established and have reached volumes of 84 to 310 mm^3.
Tumor volumes and side effects are monitored as described in Example 1 (see paragraph 1.1.6), except that control animals are sacrificed when the median tumor volume of the group reaches a size of approximately 710 mm^3.
The statistical evaluation of the tumor volume and the body weight is conducted on day 42 (last day of the study). Apart from this, statistical analysis was performed as described in Example 1 (see paragraph 1.1.7), with no evaluation of tumor growth after stop of treatment.

The subject of series [2] is HER2 Exon20^YVMA-mutant human non-small cell lung cancer (NSCLC) cell line PC-9_YVMA-5. The series can be described thus: PC-9_YVMA-5 subcutaneous xenograft, zongertinib with T-DM1. Type of series: in vivo, NMRI-Foxn1^nu mice. The following applies: alone or combined; for effect on tumor growth (median tumor volumes over time): T-DM1 5 mg/kg once weekly (q7d), zongertinib 5 mg/kg/day; for TGI: day 19; for TGI / tumors regressed completely / Regressions >30%: zongertinib 5 mg/kg bid, T-DM1 5 mg/kg q7d; for tumors regressed completely: number of tumors, 8 per group; for Regressions >30%: tumors regressed/total (Table 6, FIG. 6 waterfall day 24). The protocol:
The study is performed in human non-small cell lung cancer (NSCLC) cell line PC-9_YVMA-5 (PC-9 YVMA in short) grown as subcutaneous xenografts in NMRI-Foxn1^nu mice. Day 1 was the first day, day 21 the last day of treatment and day 24 the final day of analysis.
PC-9 is a non-small cell lung cancer cell line that can be obtained from the European Collection of Authenticated Cell Cultures (ECACC #90071810) and expresses an EGFR DEL19 mutation. To generate the PC-9_YVMA-5 clone driven by HER2 YVMA, parental PC-9 cells are ectopically transduced to express the HER2 YVMA isoform and the EGFR alleles (mutant and wild type) are deleted using CRISPR technology. Cells are cultured in T175 tissue culture flasks at 37° C. and 5% CO2. The medium used is RPMI 1640 supplemented with 10% FCS (Thermo Scientific #SH 30071.03), 0.5 μg/ml Puromycin (Gibco #A1113803) and 0.6 mg/ml Geneticin (Gibco #10131035). Cultures are split twice weekly with a ratio of 1:5-1:6.
To establish subcutaneous tumors, PC-9_YVMA-5 cells are harvested by centrifugation, washed and resuspended in PBS+5% FCS at 5×10^7 cells/ml. 100 μl cell suspension containing 5×10^6 cells is injected subcutaneously into the right flank of the mice (1 site per mouse). Mice are randomly distributed between the treatment and the vehicle control group (12 days after cell injection) when tumors are well established and have reached volumes of 90 to 149 mm^3.
Mice in the control group are treated with vehicle, i.e.: • (i) 0.5% Natrosol, administered twice daily for the duration of the treatment intragastrally by gavage needle with a volume of 10 ml/kg body weight; and • (ii) saline (0.9%), administered once weekly intravenously into the tail vein with a volume of 5 ml/kg.
Tumor volumes and side effects are monitored as described in Example 1 (see paragraph 1.1.6), except that control animals are sacrificed when the median tumor volume of the group reaches a size of approximately 370 mm^3.
The statistical evaluation of the tumor volume and the body weight is conducted on day 19 (last day of the controls). Apart from this, statistical analysis was performed as described in Example 1 (see paragraph 1.1.7), with no evaluation of tumor growth after stop of treatment.

As to `C=CC(=O)NC1CCN(c2ncc3ncnc(Nc4ccc(Oc5ccc6c(c5)ncn6C)c(C)c4)c3n2)CC1` [Zongertinib, N-{1-[8-({3-methyl-4-[(1-methyl-1H-1,3-benzodiazol-5-yl)oxy]phenyl}amino)-[1,3]diazino [5,4-d]pyrimidin-2-yl]piperidin-4-yl}prop-2-enamide], in series [1], the stable disease result was “no stable disease”; the “Regressions >30%” value was 0/7; the TGI amounted to 86%; the “mice that lost some weight and had to be euthanized” value is 1 out of 8. Besides, the “Regressions >30%” value in series [1] (listed as zongertinib) is recorded as “no partial responses”. Also, in series [2], the “effect on tumor growth (median tumor volumes over time)” value is given as “abolished tumor growth”, the TGI came to 110%, the tumors regressed completely entry is listed as “none” and the “Regressions >30%” value is given as 4/8. In addition, in series [2] (listed as zongertinib), the “Regressions >30%” value is 4.

For the compound “trastuzumab emtansine [T-DM1, reference compound]”, in series [1], the stable disease is listed as 3; the “Regressions >30%” value was 1 and 1/5; the TGI is recorded as 85%; the “mice that lost some weight and had to be euthanized” value was 2 out of 8. Also, in series [2], the “effect on tumor growth (median tumor volumes over time)” value is “abolished tumor growth”; the TGI was 112%; the tumors regressed completely entry is “none”; the “Regressions >30%” value was 4 and 4/8.
